Results published in patent US20130005718A1 (priority 2009, published 2013).
“And” between values parts separate entries of the source, which are not always exact repeats. Identical values can stand only once. “Also recorded” adds a separate entry of the source. Like-named read-outs stand apart in the source and are kept apart here.

What was measured:
HCN1 channels = target: T1, HCN1 channels (Mus musculus, UniProt O88704); assay: Two-electrode voltage clamp (TEVC) of HCN1 channel gating in Xenopus oocytes; type: cell-based, murine; conditions: for HCN isoform preference (words): HCN1 versus HCN2, 3 or 4
T1 construct: expressed in transfected cells; host or cells: Xenopus oocytes (cRNA injection)

[1] = in vivo; cited from earlier work
GABAA-Rs = conditions: cited from earlier work
[2] = test system: PNL-induced thermal hyperalgesia; assay: Hind paw withdrawal latency (HPWL) to heat source after PNL; type: in vivo, C57 Black/6J mice; conditions: i.p., 15% heat stimulus
[3] = variously reported; cited from earlier work
HCN4 = HCN4 (Mus musculus, UniProt O70507); conditions: 20 μM, n=4
Description: (§1) cDNA encoding murine (HCN1, 2 and 4) and human (HCN3) HCN channels were subcloned into pGH19 (HCN1 and 4) or pGHE (HCN2 and HCN3) vectors and amplified in STBL2 cells (Invitrogen Corporation, Carlsbad, Calif.). cRNA was transcribed from NheI (HCN1, HCN3 and HCN4) or SphI (HCN2) linearized DNA using T7 RNA polymerase (Message Machine; Ambion, Houston, Tex.). 11-50 ng RNA was injected into each Xenopus oocyte.
(§2) Recordings were made from Xenopus oocytes 2-5 days after cRNA injection. Cells were maintained in L-15 media without ficoll (Specialty Media, Phillipsburg, N.J.) at 17° C. until use.
(§3) Two microelectrode voltage clamp (TEVC) data, acquired using a Warner Instruments (Hamden, Conn.) OC-725C amplifier, were recorded with Pulse software (HEKA Elektronik, Lambrecht/Pfalz, Germany) following filtering of the wide bandwidth output of the clamp at 2.5 kHz (with a Frequency Devices 902 8-pole Bessel filter) and digitization at 5 kHz using an ITC-18 interface (Instrutech Corporation, Port Washington, N.Y.).
(§4) Microelectrodes were fabricated from 1B120-F4 borosilicate glass (World Precision Instruments, Sarasota, Fla.) and had resistances of 0.1-0.5 MΩ (I passing) and 1-4 MΩ (V sensing) when filled with 3 M KCl. The Ag—AgCl ground wire(s) of the active virtual ground circuit were connected to the bath solution by 3M KCl-2% agar salt bridges placed downstream of, but close to, the oocyte. Recordings were obtained at room temperature (22-24° C.).

HCN3 = HCN3 (Homo sapiens, UniProt Q9P1Z3); conditions: 20 μM, n=6
Description: as §1, §2, §3, §4

HCN2 = HCN2 (Mus musculus, UniProt O88703); conditions: 20 μM, n=6
Description: as §1, §2, §3, §4

[4] = cited from earlier work
righting reflex [5] = conditions: cited from earlier work
[6] = test system: PNL-induced mechanical allodynia and hyperalgesia; assay: Von Frey fiber test after partial sciatic nerve ligation (PNL); type: in vivo, C57 Black/6J mice
righting reflex [7] = conditions: i.p. cumulative up to 60 mg/kg
[8] = HCN1 V1/2 dose-response, relative to 2,6-DTBP

T1 sequence (O88704 whole entry, canonical isoform): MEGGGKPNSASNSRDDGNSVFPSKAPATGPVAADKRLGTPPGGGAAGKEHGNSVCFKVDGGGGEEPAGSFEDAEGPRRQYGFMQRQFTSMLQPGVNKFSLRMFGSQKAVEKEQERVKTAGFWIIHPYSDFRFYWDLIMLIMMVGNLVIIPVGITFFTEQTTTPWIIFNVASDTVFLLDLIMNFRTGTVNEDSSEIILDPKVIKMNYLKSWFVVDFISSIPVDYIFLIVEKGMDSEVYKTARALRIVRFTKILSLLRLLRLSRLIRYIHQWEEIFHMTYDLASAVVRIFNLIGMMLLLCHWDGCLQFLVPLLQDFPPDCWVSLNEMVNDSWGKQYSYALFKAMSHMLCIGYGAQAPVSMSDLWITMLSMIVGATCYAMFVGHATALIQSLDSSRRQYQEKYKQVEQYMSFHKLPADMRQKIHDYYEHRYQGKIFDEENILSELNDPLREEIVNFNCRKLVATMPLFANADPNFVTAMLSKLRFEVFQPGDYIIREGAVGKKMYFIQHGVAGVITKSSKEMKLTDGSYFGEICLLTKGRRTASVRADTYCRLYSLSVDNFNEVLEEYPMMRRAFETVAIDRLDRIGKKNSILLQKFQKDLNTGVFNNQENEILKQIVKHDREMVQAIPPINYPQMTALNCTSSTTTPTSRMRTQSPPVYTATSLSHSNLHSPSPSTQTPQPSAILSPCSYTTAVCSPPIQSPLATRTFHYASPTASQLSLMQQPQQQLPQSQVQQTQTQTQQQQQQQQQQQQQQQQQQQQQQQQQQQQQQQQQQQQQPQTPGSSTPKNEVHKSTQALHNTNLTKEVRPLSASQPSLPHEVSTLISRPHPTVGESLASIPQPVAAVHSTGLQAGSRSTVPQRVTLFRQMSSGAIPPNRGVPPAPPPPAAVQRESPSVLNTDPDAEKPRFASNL
HCN3, sequence (Q9P1Z3 whole entry): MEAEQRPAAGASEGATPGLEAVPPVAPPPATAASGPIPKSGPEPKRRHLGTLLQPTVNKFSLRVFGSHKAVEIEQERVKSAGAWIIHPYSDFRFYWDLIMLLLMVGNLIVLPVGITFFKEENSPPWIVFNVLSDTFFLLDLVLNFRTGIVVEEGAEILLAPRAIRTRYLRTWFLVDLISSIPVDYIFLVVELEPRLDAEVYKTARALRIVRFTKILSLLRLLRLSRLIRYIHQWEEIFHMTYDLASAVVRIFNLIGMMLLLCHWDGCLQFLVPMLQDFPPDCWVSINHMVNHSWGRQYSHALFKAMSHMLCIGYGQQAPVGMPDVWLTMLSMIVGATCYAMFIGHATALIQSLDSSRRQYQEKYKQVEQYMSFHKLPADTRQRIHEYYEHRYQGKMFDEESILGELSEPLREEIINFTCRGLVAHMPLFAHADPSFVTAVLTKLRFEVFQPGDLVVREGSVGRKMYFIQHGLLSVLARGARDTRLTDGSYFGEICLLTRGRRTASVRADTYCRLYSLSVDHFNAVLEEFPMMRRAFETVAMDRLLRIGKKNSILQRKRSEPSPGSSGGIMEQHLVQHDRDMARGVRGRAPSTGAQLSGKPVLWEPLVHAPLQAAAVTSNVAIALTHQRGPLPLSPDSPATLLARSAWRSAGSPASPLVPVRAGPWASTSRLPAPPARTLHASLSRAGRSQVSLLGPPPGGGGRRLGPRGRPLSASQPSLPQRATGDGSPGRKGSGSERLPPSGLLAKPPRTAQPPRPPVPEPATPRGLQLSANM
HCN2, sequence (O88703 whole entry): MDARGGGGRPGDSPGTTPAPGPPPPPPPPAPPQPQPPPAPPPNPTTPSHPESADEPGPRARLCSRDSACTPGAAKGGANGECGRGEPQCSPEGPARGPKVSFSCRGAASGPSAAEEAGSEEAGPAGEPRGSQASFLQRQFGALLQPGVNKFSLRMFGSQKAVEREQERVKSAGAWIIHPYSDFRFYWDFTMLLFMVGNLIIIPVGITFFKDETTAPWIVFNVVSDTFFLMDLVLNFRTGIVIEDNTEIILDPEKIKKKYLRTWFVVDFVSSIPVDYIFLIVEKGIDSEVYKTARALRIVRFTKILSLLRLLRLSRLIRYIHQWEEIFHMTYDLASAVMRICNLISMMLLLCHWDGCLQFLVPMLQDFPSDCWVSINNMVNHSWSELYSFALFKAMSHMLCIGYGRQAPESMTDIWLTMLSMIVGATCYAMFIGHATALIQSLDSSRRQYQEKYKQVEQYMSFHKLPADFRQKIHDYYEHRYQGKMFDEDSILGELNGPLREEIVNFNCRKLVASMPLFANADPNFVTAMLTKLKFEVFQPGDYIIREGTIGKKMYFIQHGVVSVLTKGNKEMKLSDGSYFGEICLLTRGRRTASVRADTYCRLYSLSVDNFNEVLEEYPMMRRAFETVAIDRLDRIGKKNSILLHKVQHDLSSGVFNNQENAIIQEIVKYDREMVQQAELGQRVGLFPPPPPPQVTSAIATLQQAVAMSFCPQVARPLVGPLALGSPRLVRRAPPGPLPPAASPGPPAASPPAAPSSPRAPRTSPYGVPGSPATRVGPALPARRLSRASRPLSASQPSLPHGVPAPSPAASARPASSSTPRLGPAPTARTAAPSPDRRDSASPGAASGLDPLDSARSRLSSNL
HCN4, sequence (O70507 whole entry): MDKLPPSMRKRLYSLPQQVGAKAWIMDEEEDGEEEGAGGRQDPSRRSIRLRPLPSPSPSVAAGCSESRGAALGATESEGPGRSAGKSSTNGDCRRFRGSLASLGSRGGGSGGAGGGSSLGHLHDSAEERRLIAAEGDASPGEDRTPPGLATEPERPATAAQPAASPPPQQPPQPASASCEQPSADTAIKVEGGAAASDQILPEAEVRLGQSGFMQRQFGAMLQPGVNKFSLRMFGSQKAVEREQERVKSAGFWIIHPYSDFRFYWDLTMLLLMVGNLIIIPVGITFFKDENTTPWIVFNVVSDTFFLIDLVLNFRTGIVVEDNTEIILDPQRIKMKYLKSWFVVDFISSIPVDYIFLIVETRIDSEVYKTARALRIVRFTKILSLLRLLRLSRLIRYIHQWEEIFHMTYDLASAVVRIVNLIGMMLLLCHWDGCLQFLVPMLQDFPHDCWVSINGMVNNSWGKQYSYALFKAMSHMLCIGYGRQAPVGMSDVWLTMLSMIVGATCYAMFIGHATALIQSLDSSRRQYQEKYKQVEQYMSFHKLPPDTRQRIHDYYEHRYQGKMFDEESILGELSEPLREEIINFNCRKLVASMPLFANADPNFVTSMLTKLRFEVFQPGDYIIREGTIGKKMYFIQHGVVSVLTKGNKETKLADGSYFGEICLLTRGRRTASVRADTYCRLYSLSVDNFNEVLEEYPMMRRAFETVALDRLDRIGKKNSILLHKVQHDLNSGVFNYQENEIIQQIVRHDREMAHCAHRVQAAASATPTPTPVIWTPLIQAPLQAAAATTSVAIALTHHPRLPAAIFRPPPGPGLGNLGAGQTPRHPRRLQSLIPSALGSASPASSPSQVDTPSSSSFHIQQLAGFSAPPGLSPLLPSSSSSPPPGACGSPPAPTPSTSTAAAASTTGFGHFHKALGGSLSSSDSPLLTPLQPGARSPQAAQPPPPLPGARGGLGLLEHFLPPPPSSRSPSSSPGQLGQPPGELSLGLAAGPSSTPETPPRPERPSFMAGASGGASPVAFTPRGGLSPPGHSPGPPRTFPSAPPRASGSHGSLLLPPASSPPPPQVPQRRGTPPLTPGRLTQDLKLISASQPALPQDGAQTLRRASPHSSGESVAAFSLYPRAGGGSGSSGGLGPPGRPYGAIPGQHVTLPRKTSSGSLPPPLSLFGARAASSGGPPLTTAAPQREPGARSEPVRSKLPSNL

CCC(C)c1cccc(C(C)CC)c1O (stereo not shown) [2,6-DSBP, 2,6-di-sec-butylphenol]
HCN1 antagonism (HCN1 channels): weak HCN1 antagonist | offset of the 2,6-DTBP Hill fit line needed to describe the data (HCN1 channels; [8]): 15 fold | anesthetic activity [1]: potent anesthetics | allosteric modulation of GABAA-Rs (GABAA-Rs): potent allosteric activators of the chloride channels

CC(C)c1cccc(C(C)C)c1O [propofol]
Plasma [propofol] Total (Engdahl et al., 1998, calculated with MW 178.3): 12.3 µM | estimated serum free concentration evoking analgesia (estimated from 3 to 10 fold lower doses than anesthesia): 0.1 to 0.3 µM | CSF concentration required for anesthesia relative to plasma (from Table 2): approximately one-tenth | EC50 (HCN1 channels; EC50 for hyperpolarization of V1/2 of HCN1 gating (Hill fit), 20 min incubation, Xenopus oocytes, TEVC): 7 to 13 µM and 13 µM and ~13 µM | HCN isoform preference (words) (HCN1 channels): preferentially inhibits HCN1 with little efficacy against HCN2, 3 or 4 channels | apparent stoichiometry h (Hill coefficient) (HCN1 channels; Hill fit of dose-response): 1.1 | concentration at which shift in HCN1 V1/2 was significant (HCN1 channels; versus DMSO control): ≥ 3 µM | thermal hyperalgesia, ipsilateral HPWL (words) [2]: powerfully and preferentially relieved neuropathic thermal hyperalgesia; also recorded: relieve the neuropathic behavior; also recorded: selectively ameliorate PNL-induced thermal hyperalgesia | thermal nociception, contralateral HPWL [2]: without significantly altering nociceptive behavior | aqueous solubility limit [3]: 864 to 1740 µM | ΔV1/2 of HCN4 (HCN4): 0.1 mV | ΔV1/2 of HCN3 (HCN3): −0.6 mV | ΔV1/2 of HCN2 (HCN2): −9.1 mV | Plasma [propofol] Total ([4]; Engdahl et al., 1998): 2.2 µg/mL | steady-state free concentration in the plasma ([4]; during general anesthesia): ~1 µM | i.p. dose required for obviation of righting reflex (righting reflex [5]; i.p.): greater than 100 mg/kg | intravenous dose for anesthesia (righting reflex [5]; mice, i.v.): 5 mg/kg | difference between PW IPSI and PW CONTRA ([6]; 20 mg/kg i.p.): significantly reduced | PW IPSI response ([6]; 60 mg/kg i.p. cumulative): indistinguishable from the control value of PW CONTRA | effect on PW CONTRA, mechanical nociception ([6]; 20 to 60 mg/kg i.p.): no statistically significant effect | neuropathic analgesia occurs at doses lower than hypnosis/anesthesia ([6]; i.p.): 3-10 fold and 3 to 10 fold | mechanical hyperalgesia/allodynia in ipsilateral paw ([6]; i.p. cumulative dosing, post-PNL mice): markedly reduced the mechanical hyperalgesia observed in the ipsilateral paw; also recorded: selectively suppresses partial sciatic nerve ligation (PNL)-induced mechanical allodynia and hyperalgesia | PW IPSI as a function of control PW CONTRA (ratio) after drug ([6]; i.p., 2.5 to 4 g fibers averaged, 3.3 before drug, unity = complete amelioration): 1.6 | reversal of the neuropathic phenotype ([6]; subhypnotic i.p. doses, 2.5 to 4 g fibers averaged): about 75% | mechanical threshold, Logit transformation (allodynia, words) ([6]; threshold set at PW of 0.1): selectively restored the mechanical threshold to that observed in the uninjured paw | loss of righting reflex (righting reflex [7]): No animals lost their righting reflex

CCC(C)c1ccc(O)c(C(C)CC)c1 (stereo not shown) [2,4-DSBP, 2,4-di-sec-butylphenol]
offset of the 2,6-DTBP Hill fit line needed to describe the data (HCN1 channels; [8]): 23 fold | anesthetic activity [1]: potent anesthetics | allosteric modulation of GABAA-Rs (GABAA-Rs): effective agonist of GABAA-Rs; also recorded: potent allosteric activators of the chloride channels

CC(C)(C)c1ccc(O)c(C(C)(C)C)c1 [2,4-DTBP, 2,4-di-tert-butylphenol]
HCN1 antagonism (HCN1 channels): effective antagonist of HCN1 | offset of the 2,6-DTBP Hill fit line needed to describe the data (HCN1 channels): 2 fold | HCN isoform preference (words) (HCN1 channels): preferentially inhibit HCN1 with little efficacy against HCN2, 3 or 4 channels | allosteric modulation of GABAA-Rs (GABAA-Rs): ineffective
